For one experiment, the target named is CDK12/CycK (Homo sapiens, UniProt Q9NYV4). The experiment in a line: CDK12/CycK high ATP kinase assay (TR-FRET, 2 mM ATP). It is filed as biochemical. The following applies: 2 mM ATP (high ATP); median; read-out: CDK12/CyclinK, 2 mM ATP (high ATP), IC50-[mol/l] (median). A digest of the protocol:
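Read-out is TR-FRET (Eu-anti-rabbit IgG, anti-phospho-c-Myc Ser62 antibody, streptavidin-XL665) after EDTA stop. Reaction ran 60 min at 22 °C using 1 µM biotin-peptide and high ATP (2 mM) with roughly 0.75 nM recombinant CDK12/CycK, after 15 min compound pre-binding; normalised emission ratios yield IC50.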
For orientation: TR-FRET usually uses a lanthanide donor and a delayed reading to cut background.

Experiment [1] concerns the target T1, CDK12 (nuclear staining in CAL-120 cells) (Homo sapiens, UniProt Q9NYV4).
T1 construct: endogenous in cells; host or cells: CAL-120 human breast cancer cells (DSMZ ACC 459)
Kind of experiment: CDK12 nuclear protein level: immunofluorescence/high content analysis (CAL-120). Type of experiment: cell-based. Conditions: for DC50: CAL-120 cells, 24 h, immunofluorescence, 50% reduction of nuclear CDK12 staining intensity, median, read-out: CDK12 degradation IF, DC50- [mol/l] (median); for (IC50 CDK12 high ATP) to (Degradation DC50 CDK12) ratio: ratio of IC50 CDK12 high ATP kinase assay to DC50 CDK12 degradation (IF, CAL-120). A digest of the protocol:
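DC50 is the degrader concentration that halves nuclear CDK12 immunofluorescence relative to controls, measured by high-content imaging. CAL-120 cells were exposed to compound for 24 h at 37 °C before PFA fixation, and signal was normalized to DMSO and control wells.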

These results are taken from US20230117034A1, “PYRAZOLOTRIAZINES” (Bayer Aktiengesellschaft, priority 2019, published 2023).

Sequence of CDK12/CycK (Q9NYV4 with tags, fused parts or gaps): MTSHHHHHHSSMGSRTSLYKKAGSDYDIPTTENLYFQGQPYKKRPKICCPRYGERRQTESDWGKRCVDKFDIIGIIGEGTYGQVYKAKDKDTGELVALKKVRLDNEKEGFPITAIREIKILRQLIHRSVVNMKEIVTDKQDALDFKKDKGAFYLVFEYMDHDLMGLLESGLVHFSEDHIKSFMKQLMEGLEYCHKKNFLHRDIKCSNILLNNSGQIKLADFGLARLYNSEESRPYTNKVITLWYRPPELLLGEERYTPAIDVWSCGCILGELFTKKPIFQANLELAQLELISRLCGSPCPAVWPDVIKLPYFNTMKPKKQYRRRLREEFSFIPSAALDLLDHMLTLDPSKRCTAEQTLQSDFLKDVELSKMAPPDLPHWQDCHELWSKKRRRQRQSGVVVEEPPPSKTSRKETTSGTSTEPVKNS
Sequence of CDK12/CycK (O75909 1-300 partner limits assumed): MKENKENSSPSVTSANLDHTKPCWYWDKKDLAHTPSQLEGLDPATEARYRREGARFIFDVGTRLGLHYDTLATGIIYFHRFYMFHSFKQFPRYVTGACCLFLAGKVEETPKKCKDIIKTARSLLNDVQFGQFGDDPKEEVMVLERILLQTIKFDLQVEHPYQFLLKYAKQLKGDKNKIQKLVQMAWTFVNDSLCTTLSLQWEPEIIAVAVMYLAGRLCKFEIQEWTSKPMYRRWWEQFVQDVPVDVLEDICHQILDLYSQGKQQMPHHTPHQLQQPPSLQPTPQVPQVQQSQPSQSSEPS
T1 sequence (Q9NYV4 whole entry): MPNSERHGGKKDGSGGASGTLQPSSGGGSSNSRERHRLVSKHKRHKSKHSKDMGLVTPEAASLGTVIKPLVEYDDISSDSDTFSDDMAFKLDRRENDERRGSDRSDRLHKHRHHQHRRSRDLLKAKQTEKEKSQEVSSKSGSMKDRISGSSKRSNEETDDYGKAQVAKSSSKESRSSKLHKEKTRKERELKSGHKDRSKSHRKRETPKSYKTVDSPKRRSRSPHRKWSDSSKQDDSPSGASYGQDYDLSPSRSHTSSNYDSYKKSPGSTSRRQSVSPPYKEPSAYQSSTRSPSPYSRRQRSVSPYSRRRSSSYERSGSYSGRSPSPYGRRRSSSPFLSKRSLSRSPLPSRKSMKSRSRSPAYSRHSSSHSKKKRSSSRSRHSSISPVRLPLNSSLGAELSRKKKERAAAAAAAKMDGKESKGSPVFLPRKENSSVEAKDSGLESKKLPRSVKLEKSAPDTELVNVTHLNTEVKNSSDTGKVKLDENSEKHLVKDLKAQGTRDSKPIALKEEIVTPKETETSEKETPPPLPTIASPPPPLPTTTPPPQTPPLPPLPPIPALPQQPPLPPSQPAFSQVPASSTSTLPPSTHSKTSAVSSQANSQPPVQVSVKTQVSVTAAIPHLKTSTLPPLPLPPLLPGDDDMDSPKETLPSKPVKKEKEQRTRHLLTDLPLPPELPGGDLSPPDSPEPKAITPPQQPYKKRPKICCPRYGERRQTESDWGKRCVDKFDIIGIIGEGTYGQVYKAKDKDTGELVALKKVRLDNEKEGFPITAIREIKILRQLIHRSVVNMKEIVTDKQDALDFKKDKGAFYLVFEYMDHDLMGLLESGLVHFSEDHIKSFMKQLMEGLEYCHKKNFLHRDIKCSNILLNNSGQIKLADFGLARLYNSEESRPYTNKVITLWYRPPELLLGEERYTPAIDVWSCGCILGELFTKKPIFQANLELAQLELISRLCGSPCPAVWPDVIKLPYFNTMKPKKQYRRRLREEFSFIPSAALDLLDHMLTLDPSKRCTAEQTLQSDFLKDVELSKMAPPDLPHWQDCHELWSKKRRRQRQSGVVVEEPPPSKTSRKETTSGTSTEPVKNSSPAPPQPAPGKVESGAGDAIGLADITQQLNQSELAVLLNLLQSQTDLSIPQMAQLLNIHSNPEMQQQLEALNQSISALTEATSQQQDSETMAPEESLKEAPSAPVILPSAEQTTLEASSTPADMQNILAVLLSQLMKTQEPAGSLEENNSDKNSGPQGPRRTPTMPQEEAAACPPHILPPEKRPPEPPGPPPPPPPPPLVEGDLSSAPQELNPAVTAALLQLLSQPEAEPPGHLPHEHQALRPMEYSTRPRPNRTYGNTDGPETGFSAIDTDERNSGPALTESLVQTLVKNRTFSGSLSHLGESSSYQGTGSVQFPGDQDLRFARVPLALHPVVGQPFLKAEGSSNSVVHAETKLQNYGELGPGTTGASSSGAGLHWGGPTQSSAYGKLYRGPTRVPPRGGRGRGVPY
T1 sequence (O75909 whole entry partner): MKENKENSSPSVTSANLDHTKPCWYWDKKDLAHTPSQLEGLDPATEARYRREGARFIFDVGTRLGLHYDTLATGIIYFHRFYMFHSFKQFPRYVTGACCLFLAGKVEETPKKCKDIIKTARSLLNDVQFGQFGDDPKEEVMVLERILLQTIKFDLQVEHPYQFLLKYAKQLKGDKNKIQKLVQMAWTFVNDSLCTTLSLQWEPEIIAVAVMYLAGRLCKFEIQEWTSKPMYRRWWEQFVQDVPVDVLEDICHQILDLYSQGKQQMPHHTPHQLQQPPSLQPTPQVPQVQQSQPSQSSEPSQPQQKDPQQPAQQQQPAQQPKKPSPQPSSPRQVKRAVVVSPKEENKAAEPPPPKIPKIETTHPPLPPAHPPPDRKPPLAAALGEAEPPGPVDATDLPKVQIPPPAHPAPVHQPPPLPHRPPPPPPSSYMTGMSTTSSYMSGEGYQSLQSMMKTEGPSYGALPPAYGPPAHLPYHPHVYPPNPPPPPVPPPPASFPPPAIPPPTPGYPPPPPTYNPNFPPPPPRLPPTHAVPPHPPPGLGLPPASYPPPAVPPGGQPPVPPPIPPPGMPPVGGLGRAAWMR

As for `Brc1cnn2c(NCc3nc4ccccc4[nH]3)nc(N3C[C@H]4CC[C@@H]3CO4)nc12` (single isomer, unassigned) [Example 383, N-[(1H-benzimidazol-2-yl)methyl]-8-bromo-2-{[1R or S-(1R*,4R*)]-2-oxa-5-azabicyclo[2.2.2]octan-5-yl}pyrazolo[1,5-a][1,3,5]triazin-4-amine], the IC50 at CDK12/CycK was found to be 4970 nM. In experiment [1], the DC50 came to 5.79 nM and the “(IC50 CDK12 high ATP) to (Degradation DC50 CDK12) ratio” value is recorded as 859.

Turning to `Cc1ccnc2[nH]c(CNc3nc(N4CCN(C)CC4)nc4c(C(C)C)cnn34)nc12` [Example 32, N-[(7-methyl-3H-imidazo[4,5-b]pyridin-2-yl)methyl]-2-(4-methylpiperazin-1-yl)-8-(propan-2-yl)pyrazolo[1,5-a][1,3,5]triazin-4-amine], the IC50 on CDK12/CycK was determined as 18500 nM. In experiment [1], the DC50 worked out at 7.21 nM and the “(IC50 CDK12 high ATP) to (Degradation DC50 CDK12) ratio” value is 2565.

`CN(CC(C)(C)O)c1nc(NCc2nc3cc(F)c(F)cc3[nH]2)n2ncc(Br)c2n1` [Example 347]: the IC50 at CDK12/CycK was 2180 nM. In addition, in experiment [1], the DC50 turned out to be 2.01 nM and the “(IC50 CDK12 high ATP) to (Degradation DC50 CDK12) ratio” value is 1086.

As to `CN(CC(C)(C)O)c1nc(NCc2nc3c(F)cccc3[nH]2)n2ncc(Cl)c2n1` [Example 366, 1-[(8-chloro-4-{[(4-fluoro-1H-benzimidazol-2-yl)methyl]amino}pyrazolo[1,5-a][1,3,5]triazin-2-yl)(methyl)amino]-2-methylpropan-2-ol], the IC50 at CDK12/CycK is 1810 nM. For the same compound, in experiment [1], the DC50 is 9.52 nM and the “(IC50 CDK12 high ATP) to (Degradation DC50 CDK12) ratio” value is on record as 190.

As to `Fc1cc2nc(CNc3nc(N4C[C@H]5CC[C@@H](C4)N5)nc4c(C5CC5)cnn34)[nH]c2cc1Cl` [Example 328, N-[(6-chloro-5-fluoro-1H-benzimidazol-2-yl)methyl]-8-cyclopropyl-2-[(1R,5S)-3,8-diazabicyclo[3.2.1]octan-3-yl]pyrazolo[1,5-a][1,3,5]triazin-4-amine], the IC50 on CDK12/CycK was 1660 nM. Also, in experiment [1], the DC50 turned out to be 3.95 nM and the “(IC50 CDK12 high ATP) to (Degradation DC50 CDK12) ratio” value is 419.

For the compound `FC(F)(F)Oc1cccc2[nH]c(CNc3nc(N4CCOCC4)nc4c(Br)cnn34)nc12` [Example 375, 8-bromo-2-(morpholin-4-yl)-N-{[4-(trifluoromethoxy)-1H-benzimidazol-2-yl]methyl}pyrazolo[1,5-a][1,3,5]triazin-4-amine], the IC50 at CDK12/CycK stood at 4560 nM. In experiment [1], the DC50 came out at 58.1 nM and the “(IC50 CDK12 high ATP) to (Degradation DC50 CDK12) ratio” value was 79.

For `Clc1cc2nc(CNc3nc(N4CC5CCC(C4)N5)nc4c(Br)cnn34)[nH]c2cc1Cl` [Example 334, 8-bromo-2-(3,8-diazabicyclo[3.2.1]octan-3-yl)-N-[(5,6-dichloro-1H-benzimidazol-2-yl)methyl]pyrazolo[1,5-a][1,3,5]triazin-4-amine], the IC50 at CDK12/CycK is 2030 nM. Moreover, in experiment [1], the DC50 amounted to 33.5 nM and the “(IC50 CDK12 high ATP) to (Degradation DC50 CDK12) ratio” value stood at 60.

`Brc1cnn2c(NCc3nc4ccccc4[nH]3)nc(N3C[C@H]4CC[C@@H]3CN4)nc12` (single isomer, unassigned) [Example 335, N-[(1H-benzimidazol-2-yl)methyl]-8-bromo-2-{[1R or S-(1R*,4R*)]-2,5-diazabicyclo[2.2.2]octan-2-yl}pyrazolo[1,5-a][1,3,5]triazin-4-amine]: on CDK12/CycK, the IC50 worked out at 6650 nM. In experiment [1], the DC50 was 8.34 nM and the “(IC50 CDK12 high ATP) to (Degradation DC50 CDK12) ratio” value turned out to be 798.
